{"source": "ChEMBL document CHEMBL5107953", "about": "“SAR study of 4-arylazo-3,5-diamino-1H-pyrazoles: identification of small molecules that induce dispersal of Pseudomonas aeruginosa biofilms” (2021)", "test_system": "Pseudomonas aeruginosa", "assay": "Anti-biofilm activity against Pseudomonas aeruginosa PAO1 harboring wspF gene mutation assessed as reduction on c-di-GMP level by measuring GFP fluorescence at 100 uM incubated for 24 hrs […]", "assay_type": "functional", "set-up": "scale not given: the % may be the effect or the level left", "data": [{"molecule": "NC1=NOC(=O)/C1=N\\Nc1ccccc1F", "values": [{"measurement": "Activity", "result": 0, "unit": "%"}]}, {"molecule": "N=C1NN=C(N)/C1=N/Nc1cccnc1F", "values": [{"measurement": "Activity", "result": 13, "unit": "%"}]}, {"molecule": "N=C1NN=C(N)/C1=N/Nc1c(F)cc(F)cc1F", "values": [{"measurement": "Activity", "result": 30, "unit": "%"}]}, {"molecule": "COc1ccc(NN=C2C(N)=NN=C2N)cc1", "values": [{"measurement": "Activity", "result": 0, "unit": "%"}]}, {"molecule": "CC(=O)/N=C1\\NN=C(NC(C)=O)\\C1=N\\Nc1ccccc1F", "values": [{"measurement": "Activity", "result": 0, "unit": "%"}]}, {"molecule": "N=C1/C(=N\\Nc2ccccc2F)C(N)=NN1S(=O)(=O)c1ccccc1", "values": [{"measurement": "Activity", "result": 0, "unit": "%"}]}, {"molecule": "N=C1/C(=N\\Nc2ccccc2F)C(N)=NN1CCO", "values": [{"measurement": "Activity", "result": 0, "unit": "%"}]}, {"molecule": "N=C1NN=C(N)/C1=N/Nc1ccccc1N", "values": [{"measurement": "Activity", "result": 0, "unit": "%"}]}, {"molecule": "N=C1NN=C(N)/C1=N/Nc1cccc(O)c1", "values": [{"measurement": "Activity", "result": 0, "unit": "%"}]}, {"molecule": "N=C1NN=C(N)/C1=N/Nc1ccccc1F", "values": [{"measurement": "Activity", "result": 83, "unit": "%"}]}, {"molecule": "N=C1NN=C(N)/C1=N/Nc1ccccc1I", "values": [{"measurement": "Activity", "result": 0, "unit": "%"}]}, {"molecule": "O=C1NOC(=O)/C1=N\\Nc1ccccc1F", "values": [{"measurement": "Activity", "result": 0, "unit": "%"}]}, {"molecule": "NC1=NNC(=O)/C1=N\\Nc1ccccc1F", "values": [{"measurement": "Activity", "result": 0, "unit": "%"}]}, {"molecule": "N=C1NN=C(N)/C1=N/Nc1ccc(F)cc1F", "values": [{"measurement": "Activity", "result": 41, "unit": "%"}]}, {"molecule": "N=C1NN=C(N)/C1=N/Nc1ccccc1Cl", "values": [{"measurement": "Activity", "result": 0, "unit": "%"}]}, {"molecule": "N=C1NN=C(N)/C1=N/Nc1cc(F)ccc1Br", "values": [{"measurement": "Activity", "result": 0, "unit": "%"}]}, {"molecule": "N=C1NN=C(N)/C1=N/Nc1cc(F)cc(F)c1", "values": [{"measurement": "Activity", "result": 35, "unit": "%"}]}, {"molecule": "N=C1NN=C(N)/C1=N/Nc1cc(F)ccc1F", "values": [{"measurement": "Activity", "result": 65, "unit": "%"}]}, {"molecule": "N=C1/C(=N\\Nc2ccccc2F)C(N)=NN1S(=O)(=O)c1ccc(N)cc1", "values": [{"measurement": "Activity", "result": 0, "unit": "%"}]}, {"molecule": "N=C1NN=C(N)/C1=N/Nc1c(F)cccc1Br", "values": [{"measurement": "Activity", "result": 0, "unit": "%"}]}, {"molecule": "N=C1/C(=N\\Nc2ccccc2F)C(N)=NN1c1ccc(S(N)(=O)=O)cc1", "values": [{"measurement": "Activity", "result": 0, "unit": "%"}]}, {"molecule": "N=C1NN=C(N)/C1=N/Nc1c(O)cccc1O", "values": [{"measurement": "Activity", "result": 15, "unit": "%"}]}, {"molecule": "N=C1NN=C(N)/C1=N/Nc1ccccc1O", "values": [{"measurement": "Activity", "result": 55, "unit": "%"}]}, {"molecule": "N=C1NN=C(N)/C1=N/Nc1c(O)cccc1F", "values": [{"measurement": "Activity", "result": 75, "unit": "%"}]}, {"molecule": "N=C1NN=C(N)/C1=N/Nc1ccncc1F", "values": [{"measurement": "Activity", "result": 0, "unit": "%"}]}, {"molecule": "Cc1ccc(N/N=C2\\C(=N)NN=C2N)c(F)c1", "values": [{"measurement": "Activity", "result": 0, "unit": "%"}]}, {"molecule": "N=C1/C(=N\\Nc2ccccc2F)C(N)=NN1C(=O)c1ccccc1", "values": [{"measurement": "Activity", "result": 0, "unit": "%"}]}, {"molecule": "N=C1NN=C(N)/C1=N/Nc1cccc(F)c1F", "values": [{"measurement": "Activity", "result": 48, "unit": "%"}]}, {"molecule": "N=C1NN=C(N)/C1=N/Nc1ccc(F)cc1", "values": [{"measurement": "Activity", "result": 44, "unit": "%"}]}, {"molecule": "NNc1ccccc1F", "values": [{"measurement": "Activity", "result": 0, "unit": "%"}]}, {"molecule": "N=C1/C(=N\\Nc2ccccc2F)C(N)=NN1c1ccc(C(=O)O)cc1", "values": [{"measurement": "Activity", "result": 0, "unit": "%"}]}, {"molecule": "N=C1/C(=N\\Nc2ccccc2F)C(N)=NN1C(=O)c1ccncc1", "values": [{"measurement": "Activity", "result": 40, "unit": "%"}]}, {"molecule": "N=C1/C(=N\\Nc2ccccc2F)C(N)=NN1c1ccc(F)cc1", "values": [{"measurement": "Activity", "result": 0, "unit": "%"}]}, {"molecule": "N=C1NN=C(N)/C1=N/Nc1ccccc1", "values": [{"measurement": "Activity", "result": 71, "unit": "%"}]}, {"molecule": "N=C1NN=C(N)/C1=N/Nc1cc(Br)ccc1Br", "values": [{"measurement": "Activity", "result": 0, "unit": "%"}]}, {"molecule": "N=C1NN=C(N)/C1=N/Nc1ccccc1Br", "values": [{"measurement": "Activity", "result": 0, "unit": "%"}]}, {"molecule": "N=C1NN=C(N)/C1=N/Nc1c(F)cccc1F", "values": [{"measurement": "Activity", "result": 77, "unit": "%"}]}, {"molecule": "N=C1NN=C(N)/C1=N/Nc1c(Br)cccc1Br", "values": [{"measurement": "Activity", "result": 0, "unit": "%"}]}, {"molecule": "N=C1NN=C(N)/C1=N/Nc1ccccc1C(F)(F)F", "values": [{"measurement": "Activity", "result": 0, "unit": "%"}]}, {"molecule": "N=C1ONC(=O)/C1=N\\Nc1ccccc1F", "values": [{"measurement": "Activity", "result": 0, "unit": "%"}]}, {"molecule": "O=C1NNC(=O)C1=NNc1ccccc1F", "values": [{"measurement": "Activity", "result": 0, "unit": "%"}]}, {"molecule": "COc1ccccc1N/N=C1\\C(=N)NN=C1N", "values": [{"measurement": "Activity", "result": 0, "unit": "%"}]}, {"molecule": "N=C1/C(=N\\Nc2ccccc2F)C(N)=NN1Cc1ccccc1", "values": [{"measurement": "Activity", "result": 0, "unit": "%"}]}, {"molecule": "N=C1ON=C(N)/C1=N/Nc1cc(F)ccc1F", "values": [{"measurement": "Activity", "result": 0, "unit": "%"}]}, {"molecule": "N=C1ON=C(N)/C1=N/Nc1c(O)cccc1F", "values": [{"measurement": "Activity", "result": 0, "unit": "%"}]}, {"molecule": "N=C1NN=C(N)C1c1ccc2ccccc2n1", "note": "(stereo unspecified)", "values": [{"measurement": "Activity", "result": 0, "unit": "%"}]}, {"molecule": "N=C1ON=C(N)/C1=N/Nc1ccccc1F", "values": [{"measurement": "Activity", "result": 0, "unit": "%"}]}, {"molecule": "N=C1NN=C(N)/C1=N/Nc1cc(Br)cc(Br)c1", "values": [{"measurement": "Activity", "result": 0, "unit": "%"}]}, {"molecule": "N=C1NN=C(N)/C1=N/Nc1ccc(F)c(F)c1F", "values": [{"measurement": "Activity", "result": 0, "unit": "%"}]}, {"molecule": "N=C1ON=C(N)/C1=N/Nc1c(F)cccc1F", "values": [{"measurement": "Activity", "result": 0, "unit": "%"}]}, {"molecule": "N=C1NN=C(N)/C1=N/Nc1cc(Br)ccc1F", "values": [{"measurement": "Activity", "result": 0, "unit": "%"}]}, {"molecule": "Cc1cccc(F)c1N/N=C1\\C(=N)NN=C1N", "values": [{"measurement": "Activity", "result": 0, "unit": "%"}]}, {"molecule": "N=C1NN=C(N)/C1=N/Nc1c(F)ccc(F)c1F", "values": [{"measurement": "Activity", "result": 61, "unit": "%"}]}, {"molecule": "CC(=O)NC1=NN(C(C)=O)C(=N)/C1=N\\Nc1ccccc1F", "values": [{"measurement": "Activity", "result": 0, "unit": "%"}]}, {"molecule": "N=C1ON=C(N)/C1=N/Nc1ccccc1O", "values": [{"measurement": "Activity", "result": 0, "unit": "%"}]}, {"molecule": "N=C1NN=C(N)/C1=N/Nc1cccc(F)c1", "values": [{"measurement": "Activity", "result": 73, "unit": "%"}]}]}
